≈ marks a conversion by molar mass, not a printed value. Read-outs that look alike come from different tables or passages of the source.
Legend:
cathepsin B = target: T1, cathepsin B (Homo sapiens, UniProt P07858); experiment: Cathepsin B activity assay (fluorogenic Z-Arg-Arg-AMC substrate); type: biochemical; details: cathepsin B from human liver; read-out: IC50, inhibitory activity towards cathepsin B
T1 construct: cathepsin B from human liver (Sigma); purchased Sigma; host or cells: human liver (tissue-purified)
Method: (§1) Enzyme-inhibitory activity assays were tested according to literatures reported.
Figure S32. IR spectrum of 8-methoxy-1-naphthyl-1-(6′-O-acetyl)-α-glucopyranoside (10).
S1. Enzyme Inhibitory Assay
S1.1. Cathepsin B Activity Assay
The assay was performed in 96-well plate according to a published method with modification.
Brifely, 50 μL reaction buffer (100 mM sodium acetate (pH 5.5), 1 mM EDTA, 4 mM dithiothreitol) containing 0.0025 unit of cathepsin B from human liver (Sigma, one unit will liberate 1 nanomole of 7-amino-4-methylcoumarin from Z-Arg-Arg 7-amido-4-methylcoumarin per min at pH 6.0 at 40 °C) and 2 μL test compounds dissolved in DMSO were added to each well of a 96-well plate. After preincubation for 15 min at room temperature, 50 μL of reaction buffer containing 100 μM Z-Arg-Arg-7-amido-4-methylcoumarin (Sigma) was added and incubated for 30 min at room temperature.
Fluorescence was measured using a microplate reader (Wallac 1420 Victor 2, PerkinElmer, HolIand) with an excitation of 355 nm and emission at 460 nm.
His-taged human IMPDH П was recombinantly expressed in Escherichia coli and purified by Ni-NTA affinity chromotagraphy as described previously. The IMPDH activity assay was performed in 200-μL assay volume of 96-well plate. Briefly, 2 μL of test compound (dissolved in DMSO) or DMSO and 150 μL enzyme buffer containing 100 mM KH2PO4, 0.5 mM EDTA pH 8, and 2 mM dithiothreitol and 50 nM IMPDH were added into the plate and incubated at 37 °C for 15 min. The reaction was initiated by adding 50 μL reaction buffer containing a final concentration of 200 μM inosine 5-monophosphate (Sigma) and 200 μM NAD (Sigma). The OD was read at 340 nm after incubation at 37 °C for 30 min with a microplate reader (Wallac 1420 Victor 2, PerkinElmer, HolIand).
(1 picture or pasted object on this page, not shown here)

Bugula neritina larvae = experiment: Larval settlement (antifouling) bioassay; details: for LC50/EC50: B. neritina larvae, ratio of lethal to settlement-inhibiting concentration; for EC50: Bugula neritina, 1 h, read-out: EC50, antifouling activity against B. neritina larvae settlement
Method: Larval culture and larval settlement assays matched the method reported in reference. […]
(§2) S2. Larval Settlement Bioassays
(§3) Antifouling activity of compounds was evaluated in settlement inhibition assays with laboratory-reared B. neritina larvae. Larval settlement bioassays were performed using sterile 24-well polystyrene plates as previously reported. Briefly, the stock solution of tested samples in DMSO was diluted with autoclaved filtered sea water (FSW) to concentrations ranging from 1 to 300 ppm. Then the EC50 and LC50 values of active compounds were calculated. In this way, about 20 competent larvae were added to each well in 1 mL of the test solution. Wells containing only FSW with DMSO served as the controls.
(§4) Three replicates of each treatment were used. The plates were incubated at 27 °C for 1 h. The percentage of larval settlement was determined by counting the settled, live individuals under a dissecting microscope and expressing the result as a proportion of the total number of larvae in the well. EC50 (inhibits 50% of settlement of B. neritina larvae in comparison with the control) and LC50 (refers to the concentration that kills 50% of the test organisms in comparison with the control) levels of active compounds were calculated by using the Excel software program.

IMPDH = target: T2, IMPDH (Homo sapiens, UniProt P12268); experiment: IMPDH enzyme assay (OD at 340 nm); type: biochemical; details: recombinant human IMPDH II; read-out: IC50, inhibitory activity towards IMPDH
T2 construct: His tag; made in house; host or cells: Escherichia coli

SHP2 = target: T3, SHP2 (Homo sapiens, UniProt Q06124); experiment: SHP2 activity assay (pNPP substrate); type: biochemical; details: human recombinant enzyme, read-out: IC50, inhibitory activity towards SHP2
T3 construct: made in house; host or cells: E. coli
T3 sequence (Q06124 1-593): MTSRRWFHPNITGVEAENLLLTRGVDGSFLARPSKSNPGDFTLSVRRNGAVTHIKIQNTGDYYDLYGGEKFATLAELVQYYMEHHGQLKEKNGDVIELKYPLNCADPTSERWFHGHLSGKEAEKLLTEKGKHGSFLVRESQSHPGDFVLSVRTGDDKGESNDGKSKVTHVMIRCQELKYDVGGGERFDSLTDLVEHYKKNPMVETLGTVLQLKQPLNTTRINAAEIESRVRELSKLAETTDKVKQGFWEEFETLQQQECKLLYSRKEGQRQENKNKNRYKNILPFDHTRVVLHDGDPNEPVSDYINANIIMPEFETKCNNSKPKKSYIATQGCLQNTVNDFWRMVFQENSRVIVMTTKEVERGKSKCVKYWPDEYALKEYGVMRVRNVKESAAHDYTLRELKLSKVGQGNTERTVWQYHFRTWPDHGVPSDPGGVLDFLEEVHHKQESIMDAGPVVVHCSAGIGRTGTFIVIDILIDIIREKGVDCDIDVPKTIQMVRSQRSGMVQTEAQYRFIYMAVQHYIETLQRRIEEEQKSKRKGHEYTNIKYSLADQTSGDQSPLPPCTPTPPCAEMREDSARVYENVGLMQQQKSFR
Method: as §1
S1.3. PTP1B and SHP2 Activity Assays
Human recombinant PTP1B and SHP2 were expressed in E. coli and purifed by Ni-NTA affinity chromotagraphy in our laboratory, respectively. The enzyme activity was measured using p-nitrophenyl phosphate (pNPP) as substrate in a 96-well plate. Brifely, purified recombinant PTP1B or SHP2 (0.05 μg) in 50 μL buffer containing 50 mM citrate (pH 6.0), 0.1 M NaCl, 1 mM EDTA, and 1 mM dithiothreitol (DTT) and test compounds were added to each well of a 96-well plate. After preincubation for 15 min at room temperature, 50 μL of reaction buffer containing 2 mM pNPP was added and incubated at 37 °C for 30 min. The PTP1B or SHP2 activity was measured by detecting the absorbance at 405 nm for the amount of produced p-nitrophenol.
as §2, §3, §4

[1] = parameters: method as in doi:10.1016/j.tet.2009.02.054; details: previous studies ref 23; cited from earlier work
PTPlB = target: T4, PTPlB (Homo sapiens, UniProt P18031); experiment: PTP1B activity assay (pNPP substrate); type: biochemical; details: human recombinant enzyme, read-out: IC50, inhibitory activity towards PTPlB
T4 construct: made in house; host or cells: E. coli
T4 sequence (P18031 1-435): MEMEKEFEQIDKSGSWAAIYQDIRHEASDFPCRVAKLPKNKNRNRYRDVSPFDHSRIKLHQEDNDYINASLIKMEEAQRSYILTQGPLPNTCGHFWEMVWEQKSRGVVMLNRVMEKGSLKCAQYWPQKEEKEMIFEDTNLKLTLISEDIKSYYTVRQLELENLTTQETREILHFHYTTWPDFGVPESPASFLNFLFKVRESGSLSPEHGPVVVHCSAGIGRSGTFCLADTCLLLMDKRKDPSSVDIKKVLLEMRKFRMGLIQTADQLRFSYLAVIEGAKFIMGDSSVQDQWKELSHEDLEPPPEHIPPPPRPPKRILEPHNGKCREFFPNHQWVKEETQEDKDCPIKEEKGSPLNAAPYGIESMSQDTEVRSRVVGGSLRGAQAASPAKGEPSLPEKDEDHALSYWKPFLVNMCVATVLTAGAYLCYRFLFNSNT

| Structure (SMILES) | IC50 (SHP2) | IC50 (cathepsin B) | LC50/EC50 (Bugula neritina larvae) | IC50 (IMPDH) | other results |
| --- | --- | --- | --- | --- | --- |
| Cc1c(O)c(C(=O)O)c(O)c2c1[C@H](C)[C@@H](C)OC2=O [Compound 4, dihydrocitrinone] | – | 28.5 ± 1.7 µM | – | – | – |
| Cc1c2c(c3oc4cc(=O)c(C)c5c-4c(c3c1O)O[C@H](C)[C@H]5C)O[C@H](C)[C@H]2C [Compound 6, dicitrinin A] | 58.4 ± 4 µM | – | > 56 | 98.7 ± 6.2 µM | EC50 (Bugula neritina larvae): 1.76 ± 0.8 µg/mL (≈ 4.63 µM) |
| Cc1c([C@H](C)[C@@H](C)O)cc(O)c(C(=O)O)c1O [Compound 7, phenol A acid] | – | 20.4 ± 1.9 µM | > 15 | – | EC50 (Bugula neritina larvae; 27 °C): 14.3 ± 1.72 µg/mL (≈ 59.7 µM) |
| CC(=O)N[C@@H](CC(C)C)C(=O)N[C@@H](CC(C)C)C(=O)N[C@H](C=O)CCCNC(=N)N [leupeptin, reference compound] | – | 0.03 µM | – | – | – |

More lines, main results first:

| IC50 (SHP2) | Structure (SMILES) | IC50 (cathepsin B) | LC50/EC50 (Bugula neritina larvae) | IC50 (IMPDH) | other results |
| --- | --- | --- | --- | --- | --- |
| 4.1 ± 0.6 µM | O=C1C[C@@H](O)[C@@H](O)c2cccc(O)c21 [Compound 17, (3R,4S)-(+)-4-hydroxy-6-deoxyscytalone] | – | – | 41.2 ± 3.6 µM | phytotoxicity (in words) [1]: phytotoxic substance; IC50 (PTPlB): 13.9 ± 1.8 µM |
| 2.8 µM | C[C@H]1[C@H](C)CC[C@]2(C(=O)O)CC[C@]3(C)C(=CC[C@@H]4[C@@]5(C)CC[C@H](O)C(C)(C)[C@@H]5CC[C@]43C)[C@H]12 [ursolic acid, reference compound] | – | – | – | – |
